The values that follow come from patent publication US20230105103A1, “THERAPEUTIC MOLECULES FOR COMBATING SEPSIS” (CENTRE FOR CELLULAR AND MOLECULAR PLATFORMS, priority 2019, published 2023).

“Also recorded” adds a separate entry of the source.

In one assay the test system is THP-1 cells. Description: THP-1 cells treated with P1 and Pp, cytokine secretion. The assay is classed as cell-based, human. On the procedure:
THP-1 cells (human acute monocytic leukemia cell line) were procured from ATCC (Cat. No# ATCC® TIB-202™). The THP-1 cells were treated with the P1 and Pp to check for any pro-inflammatory activity.

A further assay concerns the target T1, TLR4 (Homo sapiens, UniProt O00206).
T1 construct: host or cells: HEK293 (HEK-Blue TLR4 reporter cells)
Put plainly: HEK-Blue TLR4 reporter assay (NF-kb and AP-1 driven SEAP). It is filed as cell-based. The following applies: P1 fraction, HEK293 reporter cells, FIG. 7. An excerpt: (§1) P1 fraction tested on reporter cell lines where TLR2, TLR4 or TLR3 is expressed in HEK293 cells and activation of the receptors is observed by NP-kB and AP-1 promoter driven SEAP enzyme secretion.
(§2) HEK-Blue TLR2, HEK-Blue TLR3 and HEK-Blue TLR4 reporter cells expressing SEAP (secreted embryonic alkaline phosphatase) enzyme under NF-kb and AP-1 promoter (Cat. no.# hkb-htlr2, hkb-htlr3 and hkb-htlr4) were purchased from InvivoGen (USA). Human Peripheral blood mononuclear cells (PBMCs) (Cat. no.# CL003-25) were purchased from Himedia laboratories (India). HEK based cells and PBMCs were cultured DMEM and RPMI media, respectively. The cells were maintained at 37° C. incubator with 5% CO2. The culture media was supplemented with 10% Fetal Calf Serum (Gibco) along with standard antibiotics. HEK-Blue selection antibiotics (InvivoGen, Cat. no.# hb-sel, ant-zn and ant-bl) were added as per manufacturers' instructions.
(§3) 2×10^4 HEK-Blue reporter cells were seeded, in each well of a 96 well plate, in HEK-Blue detection media (InvivoGen, Cat. no.# hb-det3) along with the 50 μg/ml of the chito-oligomers. […] The treated cells were incubated at about 37° C. for about 16 hours and absorbance (O.D.) was measured at 620 nm in either TECAN Infinite® 200 PRO or Thermo Scientific Varioskan LUX multimode reader.
A general note: In a reporter assay the amount or activity of a reporter protein is the signal.

Assay [1] deals with septic mice in the CLP model (polymicrobial sepsis). Description: Survival of septic mice in CLP model, native protein. It is filed as in vivo. On the procedure:
About 80% of mice that received 15-35 μg of protein and about 60% mice that received 1-20 μg of protein survived even up to 16 days. More preferably, 80% of mice that received 25 μg of protein and 60% mice that received 10 μg of protein survived even up to 16 days. All the mice in the control group had died in the same duration.

Assay [2] deals with septic mice in endotoxemia model. Put plainly: Survival in endotoxemia model (LPS injection), native protein. It is filed as in vivo. The following applies: treated 6 hours post LPS injection, up to ten days, group G2. On the procedure:
In this model, post LPS Injection (i.e., 6 hours) animals were treated with vehicle and test agents amongst different groups G1-G5 as specified in figure. G2 (LPS+DIA-1) was treated with the P1 protein while G3 and G4 were other test protein used as experimental controls.

The target of assay [3] is T2, TLR2 (Homo sapiens, UniProt O60603). Description: HEK-Blue TLR2 reporter assay (NF-kb and AP-1 driven SEAP). The assay is classed as cell-based. Also on record: host or cells: HEK293 (HEK-Blue TLR2 reporter cells). The conditions noted are these: P1 fraction, HEK293 reporter cells, FIG. 7.
Source text: as §1, §2, §3
Target sequence in this assay (O60603 21-784): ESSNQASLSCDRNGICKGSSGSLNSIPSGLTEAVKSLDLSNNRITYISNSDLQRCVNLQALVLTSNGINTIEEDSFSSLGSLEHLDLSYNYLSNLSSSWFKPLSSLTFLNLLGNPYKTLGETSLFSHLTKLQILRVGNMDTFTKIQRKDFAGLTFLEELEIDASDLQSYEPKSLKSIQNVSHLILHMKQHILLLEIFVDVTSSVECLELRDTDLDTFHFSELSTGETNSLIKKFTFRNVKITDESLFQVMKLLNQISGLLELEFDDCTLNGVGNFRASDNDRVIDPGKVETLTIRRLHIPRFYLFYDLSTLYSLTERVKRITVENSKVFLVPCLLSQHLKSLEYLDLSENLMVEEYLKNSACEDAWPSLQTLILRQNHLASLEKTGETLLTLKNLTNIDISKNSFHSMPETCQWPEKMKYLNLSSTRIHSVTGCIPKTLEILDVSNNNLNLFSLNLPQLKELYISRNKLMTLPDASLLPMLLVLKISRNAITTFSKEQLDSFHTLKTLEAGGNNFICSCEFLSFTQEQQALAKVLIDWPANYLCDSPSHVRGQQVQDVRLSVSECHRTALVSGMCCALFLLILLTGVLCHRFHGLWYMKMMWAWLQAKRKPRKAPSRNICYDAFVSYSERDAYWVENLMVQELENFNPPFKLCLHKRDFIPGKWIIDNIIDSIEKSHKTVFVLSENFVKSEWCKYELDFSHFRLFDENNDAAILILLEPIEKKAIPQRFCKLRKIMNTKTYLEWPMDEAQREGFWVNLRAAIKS

The subject of a further assay is IL-18. The conditions noted are these: monocytes, in vitro, FIG. 8. From the text: Increased levels of IL-18 have also been associated with higher mortality in sepsis. In endotoxemia mice models IL-18 knockout mice show better survival than the wild type indicating a role of IL18 in disease severity (Berghe T V, 2014 Eidt M V, 2016).
Another assay has as its target TLR3 (Homo sapiens, UniProt O15455). The following applies: P1 fraction, HEK293 reporter cells, FIG. 7.
Source text: as §1, §2, §3

The target of assay [4] is T2, TLR2. The following applies: Das et al., 2019; cited from earlier work.
Target sequence in this assay (O60603 21-784, species assumed): as the sequence (O60603 21-784) above
In assay [5] the test system is mice in endotoxemia model. The following applies: Panda et al., 2012; cited from earlier work.

T1 sequence (O00206 24-839): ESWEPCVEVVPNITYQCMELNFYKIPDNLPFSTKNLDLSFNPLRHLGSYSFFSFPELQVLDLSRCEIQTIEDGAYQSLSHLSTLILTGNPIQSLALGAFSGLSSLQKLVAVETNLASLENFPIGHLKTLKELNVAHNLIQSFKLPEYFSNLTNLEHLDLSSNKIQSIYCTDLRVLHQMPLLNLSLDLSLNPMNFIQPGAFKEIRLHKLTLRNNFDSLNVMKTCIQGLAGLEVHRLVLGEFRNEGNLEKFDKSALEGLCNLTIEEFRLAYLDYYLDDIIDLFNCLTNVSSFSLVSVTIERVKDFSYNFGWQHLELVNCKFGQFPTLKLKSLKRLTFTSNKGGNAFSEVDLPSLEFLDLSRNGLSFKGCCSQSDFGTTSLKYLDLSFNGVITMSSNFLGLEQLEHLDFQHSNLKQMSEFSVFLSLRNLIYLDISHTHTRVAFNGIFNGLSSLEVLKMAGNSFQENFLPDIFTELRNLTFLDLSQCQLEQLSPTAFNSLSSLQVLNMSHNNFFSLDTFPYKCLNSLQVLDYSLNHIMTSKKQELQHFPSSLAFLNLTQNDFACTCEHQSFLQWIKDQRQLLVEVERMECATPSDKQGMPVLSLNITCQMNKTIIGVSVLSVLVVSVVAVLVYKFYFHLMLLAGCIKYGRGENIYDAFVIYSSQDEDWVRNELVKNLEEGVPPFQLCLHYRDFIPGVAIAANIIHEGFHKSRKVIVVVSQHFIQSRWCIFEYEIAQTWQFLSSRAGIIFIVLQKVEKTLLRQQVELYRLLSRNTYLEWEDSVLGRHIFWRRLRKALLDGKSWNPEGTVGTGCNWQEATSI
T1 sequence (Q9Y6Y9 17-160 partner limits assumed): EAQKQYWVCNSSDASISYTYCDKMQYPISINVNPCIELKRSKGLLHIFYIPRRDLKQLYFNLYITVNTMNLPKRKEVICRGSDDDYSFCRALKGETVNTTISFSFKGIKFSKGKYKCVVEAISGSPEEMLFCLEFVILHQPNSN

Turning to “P1: Major G75 size exclusion peak of AgW from Setaria digitata, a pure glycoprotein identified as Heat Shock Protein 70 (SEQ. ID NO. 1)”, the “alternate activation marker CLEC10A or CD301” value in the assay with THP-1 cells (THP-1 cells) was “reduces”. Also, the “secretion of pro-inflammatory cytokines” value in the assay on THP-1 cells (THP-1 cells, FIG. 1B) is “highly active”. Moreover, in the assay on THP-1 cells (THP-1 cells, FIG. 1C), the “secretion of IL-1b” value is “promote secretion”, the “secretion of IL-6” value is reported as “promote secretion”, the “secretion of IL-10” value is reported as “promote secretion” and the “secretion of MCP-1” value is on record as “promote secretion”. Also, the “secretion of TNF-α” value in the assay on THP-1 cells (THP-1 cells, FIG. 1C) is given as “promote secretion”. Also, the induction of cytokines entry with THP-1 cells (THP-1 monocytic cells, FIG. 1C) is listed as “activated the THP-1 monocytic cells”. In the assay with TLR4, the “activation of TLR4 (SEAP secretion)” value is “activates; also recorded: consistently activating”. Besides, the “mice survived up to 16 days” value in assay [1] (10 μg of protein) is recorded as 60%. In assay [1] (25 μg of protein), the “mice survived up to 16 days” value was 80%. Further, in assay [1] (1-20 μg of protein), the “mice survived up to 16 days” value is listed as “about 60%”. The “mice survived up to 16 days” value in [1] (15-35 μg of protein) was “About 80%”. In assay [2], this compound registered a survival of 66%. The “activation of TLR2 (SEAP secretion)” value with TLR2 [3] is given as “activates; also recorded: consistently activating”. Also, the “reduction in IL-18 transcript levels” value in the assay with IL-18 is “more than 60%”. Also, the “activation of TLR3 (SEAP secretion)” value with TLR3 is “no activation”.

With `CC(=O)N[C@H]1[C@H](OC2CCCCC2)O[C@H](CO)[C@@H](O[C@@H]2O[C@H](CO)[C@@H](O)[C@H](O)[C@H]2NC(C)=O)[C@@H]1O` [AVR-25], the “binding affinity to TLR2” value at TLR2 [4] was “did not show any binding affinity”.

Turning to chitohexaose [CHTX], the protection of mice entry in assay [5] is on record as “protect mice”.
